Measurements taken from US6419907B1, “Use of cupric complex of 3,5-disopropylsalicylic acid by way of a cosmetic product and cosmetic compositions containing this compound for protecting the human epidermis against UV radiation” (L'Oreal, priority 1987, dated 2002).

Tested on: skin
Assay: application on the skin against injuries caused by solar/UV radiation
Assay type: in vivo
Conditions: persists in the presence of sunscreens

CC(C)c1cc2c(c(C(C)C)c1)[O][Cu]1([O]C2=O)[O]C(=O)c2cc(C(C)C)cc(C(C)C)c2[O]1 [copper (II) bis(3,5-diisopropylsalicylate)]
intensity of the solar erythema: reduced
number of degraded keratinocytes: reduced
